Measurements from US20240009151A1, “FORMULATIONS OF AZOBENZENE PHOTOREACTIVE COMPOUNDS” (BAYON THERAPEUTICS, INC., priority 2020, published 2024).

Tests used:
[1] = system: retinal ganglion cells (RGCs) from rd1 retina; assay: multielectrode array (MEA) electrophysiology of isolated rd1 retinas, light response index (LRI); type: cell-based, mouse
Protocol: Isolated rd1 retinas were treated with formulations of 100 μM Compound 1 and increasing concentrations of SBE-CD, from 300 μM to 34000 μM. Light responsivity was measured using multielectrode array (MEA) electrophysiology. […] To quantify the degree of light-responsivity for each recorded cell, the normalized relative difference in observed spike frequencies with and without light stimulus was defined as the light response index (LRI): […]

[2] = system: RGCs of rd1-GCaMP6f retina; assay: 2-photon live calcium imaging of isolated rd1-GCaMP6f retina, fraction of light-responsive cells; type: cell-based, mouse; conditions: 100 μM Compound 1; lower stoichiometry of SBE-CD (300 μM vs 1200 μM), synaptic blockers
Protocol: To better understand how Compound 1 was photosensitizing RGCs, an rd1 mouse line was generated expressing the genetically encoded calcium indicator GCalVIP6f under control of Synapsin-1 to label all neurons for 2-photon live imaging. Isolated retina from these mice were then treated with 100 uM Compound 1 and either 300 uM or 1200 uM SBE-CD and imaged in the presence of synaptic blockers. The latter concentration was chosen to increase the amount of available cyclodextrin around to potentiate the photosensitization while not completely quenching it. Due to the spectral overlap of Compound 1 absorbance with GCaMP6fref, an interline stimulus module was developed for the 2-photon microscope. […]
To determine which neurons were responding to light, collected movies were cross correlated to the stimulus periods using an autocorrelation estimation. […] These resulting correlated micrographs were then used to quantify the number of light-responsive cells. […]
The total number of cells were counted from a max Z-projection the same movies and used to determine the relative fraction of light-responsive cells per Compound 1 formulation. […] The activity was also rastered using the recorded ΔF/F of all neurons (FIG. 2e).

RGCs of rd1 retina = assay: single in vivo injection, time course of photosensitization of RGCs (spike rasters, LRI); parameters: species or system mouse; conditions: 100 μM Compound 1 and 1200 μM SBE-CD, observed up to 28 days post-injection
Source text: FIG. 3e is a scatter plot correlating the strength of light responses in RGCs and the abundance of Compound 1 in retinal tissue.

## CCN(Cc1ccccc1)c1ccc(/N=N/c2ccc(NC(=O)C[N+](CC)(CC)CC)cc2)cc1 [Compound 1]
[1]; 100 μM Compound 1, SBE-CD from 300 μM to 34000 μM
  dependence of LRI on the amount of SBE-CD used: dose-response
[1]; 100 μM Compound 1 with 300 μM SBE-CD (minimal amount)
  light response of RGCs (MEA): strongest light-responses
[1]; 100 μM Compound 1 with 34000 μM SBE-CD (excess)
  light response of RGCs (MEA): nearly eliminated any light response
[1]; excess of SBE-CD, compared to untreated rd1 tissue
  photosensitization of the cells (LRI histograms): very weakly
[1]; minimal amount of SBE-CD
  number of light-responding RGCs (LRI histograms): greatly increased
[2]
  number of RGCs that were light responsive (fraction of light-responding cells): greater number of RGCs that were light responsive
RGCs of rd1 retina
  duration of photosensitization of RGCs: prolongs photosensitization
